Reference: patent US20120021434A1, “METHOD FOR TREATING B CELL REGULATED AUTOIMMUNE DISORDERS” (Synta Pharmaceuticals Corp., priority 2005, published 2012)

Legend:
Assay type in all cases: cell-based
ICSBP = ICSBP expression (Western blot)
Experimental: The 10% SDS Polyacrylamide gels (Inveitrogen) were transferred to Pure Nitrocellulose membrane (BioRed, Hercules, Calif.). The membranes were blocked with 5% milk in TBST buffer and incubated with anti-c-Rel, anti-p65, anti-p50, anti-ICSBP or anti-PU-1 antibody (all the antibodies were purchased from Santa Cruz) at a dilution of 1:500 for 1 h at room temperature or overnight at 4C. The membranes were washed and incubated with Horseradish Peroxidase-conjugated anti-rabbit IgG or anti-mouse IgG (Amersham, England) at a dilution of 1:2000 at room temperature for 1 h.
Of the transcription factors that have been analyzed, two factors, ICSBP and c-Rel, seem to be affected by Compound 4/Compound 50 treatment. ICSBP binds indirectly to the Ets-2 site. The primary NF-κB trans-activator for IL-12 is the c-Rel/p50 heterodimer. Other dimers (p65/p50 and p50/p50) either lack activity or have inhibitory functions. Thus, c-Rel plays a role in IL-12 transcription as a result of both activation through NF-κB and its interaction with ICSBP. […] The membranes were blocked with 5% milk in TBST buffer and then incubated with anti-c-Rel, anti-p65, anti-p50, anti-ICSBP or anti-PU-1 antibody (all the antibodies were purchased from Santa Cruz) at a dilution of 1:500 for 1 h at room temperature or overnight at 4° C. The membranes were washed and incubated with Horseradish Peroxidase-conjugated anti-rabbit IgG or anti-mouse IgG (Amersham, England) at a dilution of 1:2000 at room temperature for 1 h.
(§1) ICSBP, whose expression was reduced by Compound 50, was over-expressed using co-transfection with the IL-12 promoter-Luc report system. The over-expression construct of ICSBP was generated by PCR from cDNA of human PBMC using primers as follow: ICSBP-exp-F: 5′-[…]-3′ (SEQ ID NO:1) and ICSBP-exp-R: 5′-[…]-3′ (SEQ ID NO:2), the resulting PCR products was ligated to pCI vector (Promega).

[1] = system: IL-12 promoter (p40 expression); test: IL-12 promoter-Luc reporter with ICSBP over-expression; details: co-transfection of ICSBP construct with IL-12 promoter-Luc reporter
Source text: as §1

c-Rel = target: T1, c-Rel (Mus musculus, UniProt P15307); test: Immunofluorescence of c-Rel nuclear accumulation in LPS-stimulated RAW264.7 cells; details: 100 nM
T1 construct: nuclear extracts from RAW cells stimulated with LPS/IFNγ; endogenous in cells; host or cells: RAW264.7
T1 sequence (P15307 whole entry): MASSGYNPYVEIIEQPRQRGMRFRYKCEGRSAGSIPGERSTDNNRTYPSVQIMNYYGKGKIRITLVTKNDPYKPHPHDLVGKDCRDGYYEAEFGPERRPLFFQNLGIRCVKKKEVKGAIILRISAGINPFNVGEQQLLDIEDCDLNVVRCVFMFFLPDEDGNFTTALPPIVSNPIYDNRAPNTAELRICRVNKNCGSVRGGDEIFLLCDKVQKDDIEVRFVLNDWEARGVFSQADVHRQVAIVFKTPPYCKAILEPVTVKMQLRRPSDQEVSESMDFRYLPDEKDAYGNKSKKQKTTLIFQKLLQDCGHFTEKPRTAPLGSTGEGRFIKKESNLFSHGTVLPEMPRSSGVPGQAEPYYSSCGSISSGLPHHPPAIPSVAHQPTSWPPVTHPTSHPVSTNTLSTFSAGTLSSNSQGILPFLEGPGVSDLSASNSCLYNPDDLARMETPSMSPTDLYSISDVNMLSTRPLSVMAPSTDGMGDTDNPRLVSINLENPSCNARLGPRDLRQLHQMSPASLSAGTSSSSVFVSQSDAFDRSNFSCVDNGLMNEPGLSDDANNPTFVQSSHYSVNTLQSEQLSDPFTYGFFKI
Experimental: (§2) We next examined whether compound 50 can block the accumulation of c-Rel in the nucleus of cells induced by LPS (FIG. 2). RAW264.7 cells cultured in DMEM with 10% BCS were split and seeded into 4-well chambered slides at 80,000 cells/well density. The cells were then treated with DMSO, Compound 50 (100 nM), LPS (Sigma, 5 μg/mL), LPS (5 μg/mL)+Compound 50 (100 nM) for 4 hours and fixed with 3% paraformaldehyde solution (1×PBS) after 1× quick rinse with 1×PBS. Fixed cells were permeablized with 0.2% TX100 and immunostained with anti-cRel antibody (SC70, Santa Cruz, 1:200 dilution) or anti-NF-κB p65 antibody (SC109, Santa Cruz, 1:100 dilution), and subsequently stained with Alexa Fluor 488 Goat-anti-Rabbit secondary antibody and DAPI (Molecular Probes, 1.1 μM). Images were obtained with CoolSNAP monochrome CCD camera on a Nikon inverted microscope TE300 using identical imaging parameters and were processed identically with Photoshop CS software. As observed previously, c-Rel localized to the cytoplasm in DMSO-treated cells and to the nucleus in LPS-treated cells. […] We also examined whether Compound 50 blocks the nuclear accumulation of another NF-κB/Rel family member, p65, in LPS-stimulated RAW cells (FIG. 3). As observed for c-Rel, p65 was localized to the cytoplasm in DMSO and Compound 50-treated cells and to the nucleus in LPS-stimulated cells. […]

NF-κB p65 = test: Immunofluorescence of p65 nuclear accumulation in LPS-stimulated RAW264.7 cells; details: RAW264.7, LPS 5 μg/mL, 100 nM, 4 hours
Experimental: as §2

IκBβ = test: Inducible degradation of IκBβ (Western blot and FACS); details: IFN-γ/LPS or IFN-γ/SAC, 500 nM, 30 min and 2 hrs
Experimental: IκB degradation is one of the steps in the signaling pathway of NF-κB dependent genes. The activity of Compound 50 in inducible degradation of IκBα and IκBβ was investigated in THP-1 cells using Western blot and FACS analysis. […] Similar results were observed from the Compound 50 pre-treatment samples in which Compound 50 was added 30 min before stimulation.

p105/p50 = test: LPS/IFNγ-induced phosphorylation of p105/p50 in THP1 cells (immunoblot); details: THP1, 100 nM, residues Ser-927 and Ser-933
Experimental: In this study, we examined the effect of Compound 50 on LPS-induced phosphorylation of the NF-κB members p65 and p105/p50. THP1 monocytic cells were stimulated with IFNγ plus LPS in the presence or absence of 100 nM Compound 50 (30 min, 1 h and 3 h) and whole-cell extracts were immunoblotted using anti-phospho p65 and p105/p50 antibodies to detect the phosphorylated forms of these proteins. […] LPS/IFNγ induced phosphorylation of p65 as early as 30 minutes on residues Ser-276, Ser-468 and […]. Compound 50 had no effect on LPS/IFNγ induced phosphorylation at these sites. […] LPS/IFNγ induced phosphorylation of p105 as early as 30 minutes on residues Ser-927 and Ser-933. Compound 50 had no effect on LPS/IFNγ induced phosphorylation at these sites.

p65 = test: Nuclear p65 in PMA+ionomycin stimulated Jurkat T cells (immunoblot); details: 100 nM

LPS-induced accumulation of c-Rel in the nucleus (c-Rel; RAW264.7, LPS 5 μg/mL, 4 hours): inhibited | nuclear/cytoplasmic distribution of c-Rel (c-Rel; RAW264.7, absence of LPS, 4 h): did not alter
Compound: Cc1cccc(/C=N/Nc2cc(N3CCOCC3)nc(OCCc3ccccn3)n2)c1 [Compound 50, N-(3-Methyl-benzylidene)-N′-[6-morpholin-4-yl-2-(2-pyridin-2-yl-ethoxy)-pyrimidin-4-yl]-hydrazine]
ICSBP expression (ICSBP): reduced | transcription factor ICSBP affected by treatment (ICSBP; of the transcription factors analyzed): affected | inhibition of p40 expression under ICSBP over-expression [1]: decreased the inhibition | LPS-induced p65 nuclear accumulation (NF-κB p65): not blocked | amount of IκBβ in the cytoplasm, with vs without compound (IκBβ): no significant difference | LPS/IFNγ induced phosphorylation of p105 (p105/p50): no effect | nuclear p65 levels (p65): unchanged
